According to patent publication US9815851B2, “Pyrrolo carboxamides as modulators of orphan nuclear receptor RAR-related orphan receptor-gamma (RORγ, NR1F3) activity and for the treatment of chronic inflammatory and autoimmune diseases” (PHENEX PHARMACEUTICALS AG, priority 2011, dated 2017):
Like-named read-outs stand apart in the source and are kept apart here.

Columns and labels:
[1] = target: T1, RORγ ligand binding domain (LBD) (Homo sapiens, UniProt P51449); assay: TR-FRET Activity Assay (ligand sensing, RORγ-LBD / coactivator peptide interaction, LANCE); type: biochemical
T1 construct: made in house; host or cells: E. coli BL-21 (BL3), vector pDEST15
T1 sequence (P51449 269-508 limits assumed): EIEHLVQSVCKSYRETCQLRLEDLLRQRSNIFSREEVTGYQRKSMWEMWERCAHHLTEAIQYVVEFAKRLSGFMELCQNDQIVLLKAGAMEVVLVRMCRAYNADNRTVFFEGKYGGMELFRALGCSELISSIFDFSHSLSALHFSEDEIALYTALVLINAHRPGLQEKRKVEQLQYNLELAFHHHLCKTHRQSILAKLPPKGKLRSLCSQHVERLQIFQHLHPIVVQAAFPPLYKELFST

RORγ = target: T2, RORγ (UniProt P51449); assay: RORγ Gal4 Reporter Gene Assay in 293T cells (firefly and renilla luciferase); type: cell-based, human
T2 sequence (P51449 1-518): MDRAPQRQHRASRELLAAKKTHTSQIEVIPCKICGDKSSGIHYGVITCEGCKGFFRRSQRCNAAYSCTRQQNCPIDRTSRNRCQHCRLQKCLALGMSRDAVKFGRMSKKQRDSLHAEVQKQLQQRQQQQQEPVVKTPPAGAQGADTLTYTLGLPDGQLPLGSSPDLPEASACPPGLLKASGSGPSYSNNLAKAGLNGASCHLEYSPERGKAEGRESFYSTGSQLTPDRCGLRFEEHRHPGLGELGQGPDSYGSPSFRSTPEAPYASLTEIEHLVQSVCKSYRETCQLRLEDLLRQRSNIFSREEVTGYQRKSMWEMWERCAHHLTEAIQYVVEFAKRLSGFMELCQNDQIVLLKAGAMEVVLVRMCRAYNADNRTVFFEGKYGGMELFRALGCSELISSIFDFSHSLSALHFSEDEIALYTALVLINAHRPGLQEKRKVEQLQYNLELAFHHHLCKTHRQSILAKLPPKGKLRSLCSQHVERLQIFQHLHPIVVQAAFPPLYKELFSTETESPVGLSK

[2] = first value of the cell FRET/FF/REN, TR-FRET activity assay, read-out: pIC50 (FRET) (converted)
[3] = second value of the cell, Gal4 reporter gene assay in 293T cells, firefly luciferase
[4] = third value of the cell, Gal4 reporter gene assay in 293T cells, renilla normalised luciferase

| Compound | IC50 [1, 2] | pIC50 (FF) (RORγ; [3]) | pIC50 (REN) (RORγ; [4]) | IC50 [1] | pIC50 (FF) (RORγ) | pIC50 (REN) (RORγ) |
| --- | --- | --- | --- | --- | --- | --- |
| Cc1c(C(=O)NC2COC2)cc(-c2cc(C(=O)N(C)C(C)(C)C)nc(C(C)(C)C)c2)n1CC1CCCCC1 [6/1] | 2000 nM | 6.7 | 6.7 | – | – | – |
| Cc1c(C(=O)NC2CCOCC2)cc(-c2ccc(NS(=O)(=O)C(C)(C)C)c(C(F)(F)F)c2)n1CC1CCCCC1 [17/247] | 1260 nM | 6.9 | 7.0 | – | – | – |
| Cc1c(C(=O)NC2CCOCC2)cc(-c2ccc(S(=O)(=O)NC(C)(C)C)c(Cl)c2)n1CC1CCCCC1 [17/234] | 200 nM | 7.1 | 7.2 | – | – | – |
| Cc1c(C(=O)NC2CCOCC2)cc(-c2cc(F)c(S(=O)(=O)NC(C)(C)C)c(C(F)(F)F)c2)n1CC1CCCCC1 [17/229] | 631 nM | 7.2 | 7.3 | – | – | – |
| Cc1c(C(=O)N[C@H]2C[C@H](C(=O)O)C2)cc(-c2cc(NCC(C)(C)C)nc(C(C)(C)C)c2)n1CC1CCCCC1 [17/196] | 3980 nM | 7.0 | 7.0 | – | – | – |
| Cc1c(C(=O)N2CC3(C2)NC(=O)CNC3=O)cc(-c2ccc(S(=O)(=O)NC(C)(C)C)c(C(F)(F)F)c2)n1CC1CCCCC1 [17/294] | 3160 nM | < 4.7 | < 4.7 | – | – | – |
| Cc1c(C(=O)NC2COC2)cc(-c2cc(C(C)(C)C)c(F)c(C(C)(C)C)c2)n1CC1CCCCC1 [1/77] | 200 nM | 6.9 | 7.0 | – | – | – |
| Cc1c(C(=O)NC2COC2)cc(-c2cc(C(C)(C)C)cc(C(C)(C)C)c2)n1C(C)C1CCCCC1 (stereo not drawn) [Example 1, 1-(1-Cyclohexylethyl)-5-(3,5-di-tert-butylphenyl)-2-methyl-N-(oxetan-3-yl)-1H-pyrrole-3-carboxamide] | 316 nM | 6.8 | 6.9 | – | – | – |
| Cc1c(C(=O)NC2COC2)cc(-c2cc(C(=O)NC(C)(C)C)nc(C(C)(C)C)c2)n1CC1CCCCC1 [Example 6, N,6-Di-tert-butyl-4-(1-(cyclohexylmethyl)-5-methyl-4-(oxetan-3-ylcarbamoyl)-1H-pyrrol-2-yl)picolinamide] | – | – | – | 631 nM | 6.2/6.3/6.4 | 6.2/6.3/6.4 |
| Cc1c(C(=O)NCCc2nn[nH]n2)cc(-c2ccc(S(=O)(=O)NC(C)(C)C)c(C(F)(F)F)c2)n1CC1CCCCC1 [17/335] | 316 nM | 5.5 | 5.6 | – | – | – |
| Cc1c(C(=O)NCC(C)(C)NC(=O)C(C)O)cc(-c2cc(C(C)(C)C)c3c(c2)C2(CCO3)CC2)n1CC1CCCCC1 (stereo not drawn) [17/123] | – | – | – | 3160 nM | 5.5/7.0/7.0 | 5.5/7.0/7.0 |
| Cc1c(C(=O)N[C@H]2C[C@H](C(=O)O)C2)cc(-c2cc(C(C)(C)O)cc3ccccc23)n1CC1CCCCC1 [17/187] | 15800 nM | < 4.7 | < 4.7 | – | – | – |
| Cc1c(C(=O)NC2CS(=O)(=O)C2)cc(-c2cc(C(C)(C)C)cc(C(C)(C)C)c2)n1CC1CCCCC1 [Example 3, 1-(Cyclohexylmethyl)-5-(3,5-di-tert-butylphenyl)-N-(1,1-dioxidothietan-3-yl)-2-methyl-1H-pyrrole-3-carboxamide] | – | – | – | 251 nM | 6.6/7.4/7.4 | 6.6/7.4/7.4 |
| Cc1c(C(=O)NCC(C)(C)O)cc(-c2cc(C(=O)NC(C)(C)C)cc(C(C)(C)C)c2)n1CC1CCCCC1 [15/8] | – | – | – | 1000 nM | 6.0/7.3/7.4 | 6.0/7.3/7.4 |
| Cc1c(C(=O)NC2COC2)cc(-c2cc(C(C)(C)C)cc(C(C)(C)C)c2)n1CC1CCCCC1 [1/53] | – | – | – | 158 nM | 6.8/7.3/7.4 | 6.8/7.3/7.4 |
| Cc1c(C(=O)N[C@H]2C[C@H](C(=O)O)C2)cc(-c2cc(C(F)(F)F)cc(C3(C)CC3)c2)n1CC1CCCCC1 [17/300] | 794 nM | 7.3 | 7.6 | – | – | – |
